Results: patent publication US7166275B2, “Compositions containing phenethyl aryl esters as solubilizing agents for active organic compounds” (ISP Investments Inc., priority 2003, dated 2007)

Tests used:
[1] = Solubility of active compounds in 2-phenylethyl benzoate, determined by GLC; assay type: physicochemical; settings: for Solubility (soluble up to) in 2-phenylethyl benzoate: solvent 2-phenylethyl benzoate, 25° C.
Method: Predetermined weight/weight (w/w) solutions were prepared at 50° C. using a given solvent and Escalol® 517 or Escalol® 567. […] A small seed crystal was added at 25° C. to hasten equilibration. Solubility limits were determined by observation of the amount of solid present, and then more precisely by a GLC method (see Example 15).
5-Chloro-2-(2,4-dichlorophenoxy)phenol (Triclosan) has bacteriostatic properties and is used as a disinfectant and preservative in cosmetic and detergent preparations. It is soluble up to 69% w/w in 2-phenylethyl benzoate, as determined by GLC. Thus, 50% w/w and 60% w/w mixtures were homogeneous solutions at 25° C., but a 70% w/w solution prepared at 70° C. precipitated a small amount of solid when seeded at 25° C. and allowed to stand for 3 days.
An 80% w/w solution prepared from 8.002 g of Triclosan and 2.009 g of 2-phenylethyl benzoate precipitated a significant amount of solid at 25° C. A 23.3-mg sample of the supernatant was dissolved in 1.00 mL of chloroform and 1.00 μL was injected via automatic injector into a GLC instrument. The areas of the 2-phenylethyl benzoate and Triclosan peaks were 9381 and 12953, respectively. The mixture was heated at 70° C. until it was homogeneous, and an 18.2-mg sample was dissolved and injected in the same manner. […] (Note that the amount injected was 3.6 μg+14.6 μg=18.2 μg.) Therefore, under our GLC conditions the response factors were 1240 units/μg and 770 units/μg, respectively. Then, the respective amounts of each component in the supernatant were 9381/1240 =7.6 μg and 12953/770 =16.8 μg, which corresponds to 69% w/w Triclosan.

[2] = Solubility of solid organic sunscreens (Escalol 517, Escalol 567) in various solvents; assay type: physicochemical; settings: solutions prepared at 50° C., stood 1 week at 25° C., seeded
Method: A small seed crystal was added at 25° C. to hasten equilibration.

| SMILES | Solubility (soluble up to) in 2-phenylethyl benzoate [1] | Solubility of Escalol 517 in the solvent ([2]; solute Escalol 517 (avobenzone)) | Solubility of Escalol 567 in the solvent ([2]; solute Escalol 567 (benzophenone-3)) | Solubility (soluble up to) in 2-phenylethyl benzoate/N-methylpyrrolidinone (1:1 w/w) ([1]; solvent 2-phenylethyl benzoate/N-methylpyrrolidinone (1:1 w/w)) |
| --- | --- | --- | --- | --- |
| Oc1cc(Cl)ccc1Oc1ccc(Cl)cc1Cl [Triclosan, 5-Chloro-2-(2,4-dichlorophenoxy)phenol] | 69 % w/w |  |  |  |
| O=C(OCCc1ccccc1)c1ccccc1C(=O)OCCc1ccccc1 [Di-2-phenylethyl phthalate, di-2-phenylethyl phthalate] |  | 30 % w/w | 31 % w/w |  |
| CCCN(CCC)c1c([N+](=O)[O-])cc(C(F)(F)F)c(N)c1[N+](=O)[O-] [Prodiamine, 5-Dipropylamino-α,α,α-trifluoro-4,6-dinitro-o-toluidine] | 5 % w/w |  |  | 24 % w/w |
